What was measured:
EBV lymphoma cells = details: cited from earlier work
[1] = test system: p300-induced p65 acetylation; details: in vitro and in vivo; cited from earlier work
EBV infection = details: cited from earlier work
[2] = Biological activity of fully substituted derivatives (test not specified)
Description: Also, peak (2) was not divided into several small fragments, nor was it possible to separate it using different conditions of thin layer chromatography, which indicates the stable nature of the formed supramolecular structure from different derivatives.

HDAC = details: cited from earlier work

Row | Compound | biological activity [2] | also measured
1 | Nc1ccccc1NC(=O)c1ccc(CNC(=O)OCc2cccnc2)cc1 [MS275] | – | effective concentrations for sensitizing to ganciclovir (EBV lymphoma cells): effective at nanomolar concentrations
2 | O=C(O[C@@H]1Cc2c(O)cc(O)cc2O[C@@H]1c1cc(O)c(O)c(O)c1)c1cc(O)c(O)c(O)c1 [No 13 (Table 1), epigallocatechin gallate] | – | p300-induced p65 acetylation [1]: cancels; expression of cytokines induced by EBV infection (EBV infection): completely blocks
3 | octaacetyl epigalocatechin [fully acetylated epigalocatechin] | did not exhibit biological activity | –
4 | octaacetyl glycyrrhizin [fully acetylated glycyrrhizin] | did not exhibit biological activity | –
5 | octasuccinyl epigalocatechin [Fully succinylated epigalocatechin] | did not exhibit biological activity | –
6 | octasuccinyl glycyrrhizin [Fully succinylated glycyrrhizin] | did not exhibit biological activity | –
7 | trichostatin A [TCA] | – | IC50% (HDAC): in the nanomolar region

Reference: patent publication US20230190756A1, “PHARMACEUTICAL FORMULATION FOR THE ELIMINATION OF CAUSATIVE AGENTS OF HERPESVIRAL INFECTIONS FROM THE TISSUES OF A MACROORGANISM” (priority 2017, published 2023)
